We go through 28 compounds from patent US9085555B2, “Complement pathway modulators and uses thereof” (priority 2011, dated 2015).

SMILES strings stand for the structures. pIC50: −log10 of the molar value. Like-named read-outs stand apart in the source and are kept apart here.

In general, pIC50 refers to −log10 of the IC50, conventionally taken in molar units.

The assay addresses Factor D (Homo sapiens (Human), UniProt P00746). In words: biochemical. Type of assay: biochemical.

Chain of Factor D (P00746 26-253): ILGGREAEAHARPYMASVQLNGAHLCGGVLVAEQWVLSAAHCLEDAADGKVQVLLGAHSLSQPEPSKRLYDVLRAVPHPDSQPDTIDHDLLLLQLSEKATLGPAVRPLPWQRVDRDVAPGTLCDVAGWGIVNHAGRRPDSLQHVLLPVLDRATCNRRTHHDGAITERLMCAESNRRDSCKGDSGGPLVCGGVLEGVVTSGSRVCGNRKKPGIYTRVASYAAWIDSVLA

In the case of `NC(=O)n1cc(NC(=O)N2C[C@H](F)C[C@H]2CNS(=O)(=O)c2cccc(Br)c2)c2ccccc21` [Example 108, 3-({(2S,4R)-4-Fluoro-2-[(3-bromo-benzenesulfonylamino)-methyl]-pyrrolidine-1-carbonyl}-amino)-indole-1-carboxylic acid amide], the pIC50 (read-out: IC50) was 7.26.

With `NC(=O)n1cc(NC(=O)N2C[C@H](F)C[C@H]2CNS(=O)(=O)c2cccc(OC(F)(F)F)c2)c2ccccc21` [Example 109, 3-({(2S,4R)-4-Fluoro-2-[(3-trifluoromethoxy-benzenesulfonylamino)-methyl]-pyrrolidine-1-carbonyl}-amino)-indole-1-carboxylic acid amide], the pIC50 (read-out: IC50) was 5.57.

As for `NC(=O)n1cc(NC(=O)N2C[C@H](F)C[C@H]2CNS(=O)(=O)c2cccc(Cl)c2F)c2ccccc21` [Example 110, 3-({(2S,4R)-2-[(3-Chloro-2-fluoro-benzenesulfonylamino)-methyl]-4-fluoro-pyrrolidine-1-carbonyl}-amino)-indole-1-carboxylic acid amide], the pIC50 (read-out: IC50) is 7.70.

With `NC(=O)n1cc(NC(=O)N2C[C@H](F)C[C@H]2CNS(=O)(=O)c2ccc(Cl)s2)c2ccccc21` [Example 111, 3-({(2S,4R)-2-[(5-Chloro-thiophene-2-sulfonylamino)-methyl]-4-fluoro-pyrrolidine-1-carbonyl}-amino)-indole-1-carboxylic acid amide], the pIC50 (read-out: IC50) is 7.22.

In the case of `NC(=O)n1cc(NC(=O)N2CCC[C@H]2CNS(=O)(=O)c2cccc(Cl)c2)c2ccccc21` [Example 112, 3-({(S)-2-[(3-Chloro-benzenesulfonylamino)-methyl]-pyrrolidine-1-carbonyl}-amino)-indole-1-carboxylic acid amide], under “read-out: IC50”, the pIC50 was 6.26.

In the case of `NC(=O)n1cc(NC(=O)N2C[C@H](F)C[C@H]2CNC(=O)Cc2ccccc2)c2ccccc21` [Example 113, 3-{[(2S,4R)-4-Fluoro-2-(phenylacetylamino-methyl)-pyrrolidine-1-carbonyl]-amino}-indole-1-carboxylic acid amide], for the setting “read-out: IC50”, the pIC50 was 5.94.

Consider `NC(=O)n1cc(NC(=O)N2C[C@H](F)C[C@H]2CNCc2cccc(Cl)c2F)c2ccccc21` [Example 116, 3-({(2S,4R)-2-[(3-Chloro-2-fluoro-benzylamino)-methyl]-4-fluoro-pyrrolidine-1-carbonyl}-amino)-indole-1-carboxylic acid amide], for which the pIC50 (read-out: IC50) was 5.94.

In the case of `NC(=O)n1cc(NC(=O)N2CCC[C@H]2CNc2cccc(OC(F)(F)F)c2)c2ccccc21` [Example 117, 3-({(S)-2-[(3-Trifluoromethoxy-phenylamino)-methyl]-pyrrolidine-1-carbonyl}-amino)-indole-1-carboxylic acid amide], the pIC50 (read-out: IC50) was 4.93.

In the case of `NC(=O)c1cn(CC(=O)N2CCC[C@H]2C(=O)Nc2cccc(OC(F)(F)F)c2)c2ccccc12` [Example 118, 1-{2-oxo-2-[(S)-2-(3-trifluoromethoxy-phenylcarbamoyl)-pyrrolidin-1-yl]-ethyl}-1H-indole-3-carboxylic acid amide], the pIC50 (read-out: IC50) is 4.76.

As to `CC(=O)n1cc(CC(=O)N2CCC[C@H]2C(=O)Nc2cccc(OC(F)(F)F)c2)c2ccccc21` [Example 119, (S)-1-[2-(1-Acetyl-1H-indol-3-yl)-acetyl]-pyrrolidine-2-carboxylic acid (3-trifluoromethoxy-phenyl)-amide], the pIC50 (read-out: IC50) was 5.32.

Consider `CC(=O)n1cc(C(N)C(=O)N2C[C@H](F)C[C@H]2C(=O)NCc2cccc(Cl)c2F)c2ccccc21` (stereo partly drawn) [Example 120, (2S,4R)-1-[2-(1-Acetyl-1H-indol-3-yl)-2-amino-acetyl]-4-fluoro-pyrrolidine-2-carboxylic acid 3-chloro-2-fluoro-benzylamide], for which the pIC50 (read-out: IC50) was 5.49.

`NC(=O)c1cc(NC(=O)N2CCC[C@H]2C(=O)Nc2cccc(OC(F)(F)F)c2)c2ccccn12` [Example 121, (S)-Pyrrolidine-1,2-dicarboxylic acid 1-[(3-carbamoyl-indolizin-1-yl)-amide]2-[(3-trifluoromethoxy-phenyl)-amide]]: the pIC50 (read-out: IC50) is 5.90.

With `NC(=O)c1cc(NC(=O)N2CCC[C@H]2C(=O)Nc2cccc(OC(F)(F)F)c2)n2ccccc12` [Example 123, (S)-Pyrrolidine-1,2-dicarboxylic acid 1-[(1-carbamoyl-indolizin-3-yl)-amide]2-[(3-trifluoromethoxy-phenyl)-amide]], where the note is “read-out: IC50”, the pIC50 is 5.53.

On to `N#C[C@H]1C[C@@H](C(=O)Nc2cccc(OC(F)(F)F)c2)N(C(=O)Nc2cn(C(N)=O)c3ccccc23)C1` [Example 125, (2S,4S)-4-Cyano-pyrrolidine-1,2-dicarboxylic acid 1-[(1-carbamoyl-1H-indol-3-yl)-amide]2-[(3-trifluoromethoxy-phenyl)-amide]], for which the negative-log IC50 (pIC50) (read-out: IC50) was 5.29.

Regarding `C[C@@H]1CCN(C(=O)Nc2cn(C(N)=O)c3ccccc23)[C@@H]1C(=O)NCc1cccc(Cl)c1F` [Example 126, (2S,3R)-3-Methyl-pyrrolidine-1,2-dicarboxylic acid 1-[(1-carbamoyl-1H-indol-3-yl)-amide] 2-(3-chloro-2-fluoro-benzylamide)], the pIC50 (read-out: IC50) is 7.00.

As for `CC(C)(C)OC(=O)Cc1ccc2c(NC(=O)N3[C@@H]4C[C@@H]4C[C@H]3C(=O)NCc3cccc(Cl)c3F)cn(C(N)=O)c2c1` [Example 127, (1-Carbamoyl-3-{[(1R,3S,5R)-3-(3-chloro-2-fluoro-benzylcarbamoyl)-2-aza-bicyclo[3.1.0]hexane-2-carbonyl]-amino}-1H-indol-6-yl)-acetic acid tert-butyl ester], under “read-out: IC50”, the pIC50 was 8.52.

`CO[C@H]1C[C@@H](C(=O)Nc2cccc(OC(F)(F)F)c2)N(C(=O)Nc2cn(C(N)=O)c3ccccc23)C1` [Example 128, (2S,4S)-4-Methoxy-pyrrolidine-1,2-dicarboxylic acid 1-[(1-carbamoyl-1H-indol-3-yl)-amide] 2-[(3-trifluoromethoxy-phenyl)-amide]]: the pIC50 (read-out: IC50) is 5.70.

Consider `CC(=O)n1cc(NC(=O)N2[C@@H]3C[C@@H]3C[C@H]2C(=O)N[C@H](CO)c2cccc(Cl)c2F)c2ccccc21` [Example 129, (1R,3S,5R)-2-Azabicyclo[3.1.0]hexane-2,3-dicarboxylic acid 2-[(1-acetyl-1H-indol-3-yl)-amide] 3-{[(S)-1-(3-chloro-2-fluoro-phenyl)-2hydroxy-ethyl]-amide}], for which the pIC50 (read-out: IC50) was 8.40.

Take `CNC(=O)n1cc(NC(=O)N2[C@@H]3C[C@@H]3C[C@H]2C(=O)NCc2cccc(Cl)c2F)c2ccccc21` [Example 130, (1R,3S,5R)-2-Azabicyclo[3.1.0]hexane-2,3-dicarboxylic acid 3-(3-chloro-2-fluoro-benzylamide) 2-[(1-methylcarbamoyl-1H-indol-3-yl)-amide]]: the pIC50 (read-out: IC50) was 7.27.

`COCCOc1ccc2c(c1)c(NC(=O)N1C[C@](C)(F)C[C@H]1C(=O)NCc1cccc(Cl)c1F)cn2C(N)=O` [Example 132, (2S,4R)-4-Fluoro-methyl-pyrrolidine-1,2-dicarboxylic acid 1-{[1-carbamoyl-5-(2-methoxy-ethoxy)-1H-indol-3-yl]-amide} 2-(3-chloro-2-fluoro-benzylamide)]: the pIC50 (read-out: IC50) was 7.74.

Turning to `COC(=O)COc1ccc2c(c1)c(NC(=O)N1[C@@H]3C[C@@H]3C[C@H]1C(=O)NCc1cccc(Cl)c1F)cn2C(N)=O` [Example 133, (1-carbamoyl-3-{[(1R,3S,5R)-3-(3-chloro-2-fluoro-benzylcarbamoyl)-2-azabicyclo[3.1.0]hexane-2-carbonyl]amino}-1H-indol-5-yloxy)-acetic acid methyl ester], the pIC50 (read-out: IC50) is 8.22.

Regarding `NC(=O)n1cc(NC(=O)N2CC3CC3[C@H]2C(=O)NCc2cccc(Cl)c2F)c2ccccc21` (stereo partly drawn) [Example 135, (1S,2S,5R)-3-Aza-bicyclo[3.1.0]hexane-2,3-dicarboxylic acid 3-[(1-carbamoyl-1H-indol-3-yl)-amide] 2-(3-chloro-2-fluoro-benzylamide)], for the setting “read-out: IC50”, the pIC50 is 7.23.

`NC(=O)n1cc(NC(=O)N2CC3CC2(C(=O)NCc2cccc(Cl)c2F)C3)c2ccccc21` [Example 136, 2-Aza-bicyclo[2.1.1]hexane-1,2-dicarboxylic acid 2-[(1-carbamoyl-1H-indol-3-yl)-amide] 1-(3-chloro-2-fluoro-benzylamide)] had a pIC50 of 4.75.

For the compound `NC(=O)n1cc(NC(=O)N2C[C@H](F)C[C@H]2C(=O)NCc2cccc(Br)c2F)c2ccccc21` [Example 138, (2S,4R)-4-Fluoro-pyrrolidine-1,2-dicarboxylic acid 2-(3-bromo-2-fluoro-benzylamide) 1-[(1-carbamoyl-1H-indol-3-yl)-amide]], the negative logarithm of the IC50 (pIC50) (read-out: IC50) is 8.05.

For the compound `CC(=O)NC[C@H]1CC[C@@H](C(=O)Nc2cccc(OC(F)(F)F)c2)N1C(=O)Nc1cn(C(N)=O)c2ccccc12` [Example 139, (2S,5R)-5-(Acetylamino-methyl)-pyrrolidine-1,2-dicarboxylic acid 1-[(1-carbamoyl-1H-indol-3-yl)-amide] 2-[(3-trifluoromethoxy-phenyl)-amide]], the pIC50 (read-out: IC50) was 5.82.

For the compound `NC(=O)n1cc(NC(=O)N2C[C@H](F)C[C@H]2C(=O)NCc2cc(C(=O)O)cc(Cl)c2F)c2ccccc21` [Example 144, 3-({[(2S,4R)-1-(1-carbamoyl-1H-indol-3-ylcarbamoyl)-4-fluoro-pyrrolidine-2-carbonyl]-amino}-methyl)-5-chloro-4-fluoro-benzoic acid], the pIC50 (read-out: IC50) is 7.82.

For `NC(=O)n1cc(NC(=O)N2CC=C[C@H]2C(=O)Nc2cccc(OC(F)(F)F)c2)c2ccccc21` [Example 145, (S)-2,5-Dihydro-pyrrole-1,2-dicarboxylic acid 1-[(1-carbamoyl-1H-indol-3-yl)-amide] 2-[(3-trifluoromethoxy-phenyl)-amide]], the negative-log IC50 (pIC50) (read-out: IC50) is 6.52.

On to `NC(=O)n1cc(NC(=O)N2CC3O[C@@H]3[C@H]2C(=O)NCc2cccc(Cl)c2F)c2ccccc21` (stereo partly drawn) [Example 146, (1R,2S,5S)-6-Oxa-3-aza-bicyclo[3.1.0]hexane-2,3-dicarboxylic acid 3-[(1-carbamoyl-1H-indol-3-yl)-amide] 2-(3-chloro-2-fluoro-benzylamide)], for which the pIC50 (read-out: IC50) was 8.05.
